The test system of experiment [1] is CEI tumor cells. Kind of experiment: In vitro proliferation of CEI tumor cells. It is filed as cell-based. The settings on record: dose-dependent, not shown.
For experiment [2], the system named is CEI tumor. Kind of experiment: In vivo growth of s.c. CEI epidermoid carcinoma implants. The settings on record: for effect on growth of CEI tumor implants: mouse, in vivo. Details: species or system mice. The procedure:
Twelve mice received a s.c. implant of 1×10^6 CEI tumor cells in the right flank and 28 days later they received a secondary implant of 3×10^5 CEI tumor cells in the left flank. […] The remaining 6 mice received 0.2 ml of phenylalanine (500 μg/ml) at the site of the secondary implant, daily, for 19 days, starting 1 hour later than the secondary implant. These secondary implants grew as in 6 controls only receiving the implant in the left flank (tumor volumes of secondary tumor+phenylalanine and of controls, 20 days after the implant in the left flank were 358±38 mm^3 and 373±93 mm^3, respectively). […] Significance: Secondary tumor and control+m-tyrosine vs. control: p<0.01; vs. secondary tumor+phenylalanine: p<0.001.

The subject of experiment [3] is C7HI tumor metastases. Kind of experiment: Spontaneous metastases of C7HI mammary adenocarcinoma in vivo. The arrangement: species or system mice. As to the method:
FIG. 7A illustrates an experiment in which mice bearing a C7HI tumor for 50 days received, between days 50 and 64, a daily intravenous injection of meta-tyrosine (0.3 mL of 1,000 μg/mL) or saline. Mice were sacrificed at day 50 (n=8, before treatment, primary tumor volume 241±16 mm^3) or at day 65 for treated (n=12, primary tumor volume 1,080±101 mm^3) or control (n=12, primary tumor volume 1,091±88 mm^3) mice, and number and size of macroscopic metastases were determined; d=diameter of metastases in mm; a, P<0.05 (Mann-Whitney U test and Student t test) versus control. […] H&E, hematoxylin and eosin.
Mice bearing a C7HI tumor for 50 days received, between days 50 and 71, a daily intravenous injection of 1.0 mg of meta-tyrosine diluted in 0.1 ml of saline, or saline only. Mice were sacrificed ad day 50 (n=12, before treatment) or at day 71 for treated (n=12) or control (n=12) mice, and number and size of macroscopic metastases were determined; d=diameter of metastases in mm.
C7HI is a breast carcinoma that generates a high number of pulmonary and hepatic metastases, the number of pulmonary metastases being higher than the number of hepatic metastases. In this experiment, 36 mice received one implant each of 5×10^5 tumor C7HI cells. 50 days after implanting the tumor cells, 12 mice were sacrificed for evaluating the number and size of pulmonary and hepatic metastases. The remaining 24 mice were divided in two groups of 12 mice each. The experimental group received 1.0 mg of meta-tyrosine diluted in 0.1 ml of saline per mouse per day. […] The second group (control) received in 0.1 ml of saline per mouse per day. After 21 days of treatment, all mice were sacrificed and the number and size of the metastases were evaluated. […] This inhibitory activity was reflected not only in that the number of metastases of both groups was the same, and in some cases lower, as compared with the number of metastases at the beginning of the treatment (as estimated by the data produced by the 12 mice sacrificed before starting the treatments), but also in that their size was either the same or smaller. This is remarkable because of the 12 experimental mice, there was one showing a low response to the treatment. Should the values measured in this particular mouse be excluded from the pool, the number of metastases at day 71 in the experimental group would have been less than half the number of metastases observed before the start of the treatment at day 50.

For experiment [4], the system named is MC-C tumor. The experiment can be described thus: In vivo growth of s.c. MC-C fibrosarcoma implants. The settings on record: for effect on growth of MC-C tumor implants: mouse, in vivo. The arrangement: species or system mice. As to the method:
Twelve mice received a s.c. implant of 5×10^6 MC-C tumor cells in the right flank and 25 days later they received a secondary implant of 2×10^6 MC-C tumor cells in the left flank. […] The remaining 6 mice received 0.2 ml of phenylalanine (500 μg/ml) at the site of the secondary implant, daily, for 19 days, starting 1 hour later than the secondary implant. These secondary implants grew as in 6 controls only receiving the implant in the left flank (tumor volumes of secondary tumor+phenylalanine and of controls, 20 days after the implant in the left flank were =680±152 mm^3 and 524±88 mm^3, respectively). […] Significance: Secondary tumor vs. control: p<0.01; vs. secondary tumor+phenylalanine: p<0.02. Control+m-tyrosine vs. control and vs. secondary tumor+phenylalanine: p<0.02.

For experiment [5], the system named is LB tumor. Kind of experiment: In vivo growth of s.c. LB tumor implants (primary, secondary under CR, established, ascitic). Details: species or system mice. The settings on record: for inhibition of tumor cells in euthymic versus nude mice: mouse, in vivo.
[6] abbreviates: 1.0 mg per mouse per day, intravenous, 21 days.

Structures are written as SMILES. Entries after “also recorded” stand apart in the source; their conditions may differ.

As to `NC(Cc1ccccc1O)C(=O)O` (stereo not drawn) [ortho-tyrosine, 2-hydroxyphenylalanine], the “in vitro proliferation of CEI tumor cells” value in experiment [1] is reported as “inhibited”. In experiment [2], the “effect on growth of CEI tumor implants” value was “inhibitory”. Also, in experiment [3] (mouse, in vivo), the “effect on C7HI metastases, experiment repeated with orto-tyrosine” value was “inhibitory effect”. For the same compound, the “effect on growth of MC-C tumor implants” value in experiment [4] is “inhibitory”. The “inhibition of tumor cells in euthymic versus nude mice” value in experiment [5] was “Identical inhibition”.

With `NC(Cc1cccc(O)c1)C(=O)O` (stereo not drawn) [meta-tyrosine, 3-hydroxyphenylalanine], in experiment [1], the “in vitro proliferation of CEI tumor cells” value is “inhibited”. Moreover, the “tumor volume 20 days after the implant in the left flank” value in experiment [2] (CEI implant in left flank only, 0.2 ml of 500 μg/ml daily for 19 days at the site of the implant) stood at 0 mm^3; in experiment [4] (MC-C implant in left flank only, 0.2 ml of 500 μg/ml daily for 19 days at the site of the implant), 212±57 mm^3. In addition, the “effect on growth of CEI tumor implants” value in experiment [2] is “sharp inhibitory effects”. Further, the “difference between size of primary tumors at day 71, experimental versus controls” value in experiment [3] (1.0 mg daily intravenous, days 50 to 71) was “not significant”. In addition, the “growth of microscopic metastases” value in experiment [3] (setting [6]) is reported as “prevented growth”. Besides, in experiment [3] (setting [6]), the “hepatic metastases at day 71” value is reported as “no metastases were detected”. For the same compound, the “growth of established macroscopic pulmonary metastases” value in experiment [3] (1.0 mg per mouse per day, intravenous, 21 days (days 50-71)) was “prevented the growth”. For the same compound, in experiment [3] (daily intravenous 0.3 mL of 1,000 μg/mL, days 50 to 64), the “primary tumor volume at day 65” value is recorded as 1,080±101 mm^3. Moreover, the “established spontaneous C7HI lung metastases” value in experiment [3] (daily intravenous 0.3 mL of 1,000 μg/mL, days 50 to 64 (FIG. 7), listed as m-tyrosine) is reported as “less metastatic foci; also recorded: sharp inhibitory effects”. For the same compound, in experiment [4], the “effect on growth of MC-C tumor implants” value is recorded as “sharp inhibitory effects”. Moreover, the “inhibition of tumor cells in euthymic versus nude mice” value in experiment [5] is given as “Identical inhibition”. For the same compound, the “effect on ascitic LB tumor cells” value in experiment [5] (not shown) is listed as “inhibitory”.
